One test deals with HT29 xenograft. The test can be described thus: Xenograft model. In kind it is in vivo, mice. Particulars: HT29, Colon; procedures and dosages of Examples 106-108.
Test [1] concerns late-stage solid tumors or hematologic malignancies. The experiment in a line: Phase I clinical study, open-label dose escalation, intravenous. In kind it is in vivo, patients. The procedure: An open-label, dose escalation study of intravenous N-(3-amino-propyl)-3-chloro-N—[(R)-1-(7-chloro-4-oxo-3-phenylamino-3,4-dihydro-quinazolin-2-yl)-but-3-ynyl]-2-fluoro-benzamide was performed. The title compound was administered to patients with late-stage solid tumors or hematologic malignancies. […] There were 3-6 patients per cohort.

[2] abbreviates: patients with the tumor types listed in Table 5.

Turning to `C#CC[C@H](c1nc2cc(Cl)ccc2c(=O)n1Nc1ccccc1)N(CCCN)C(=O)c1cccc(Cl)c1F` [Compound 1, N-(3-Amino-propyl)-3-chloro-N—[(R)-1-(7-chloro-4-oxo-3-phenylamino-3,4-dihydro-quinazolin-2-yl)-but-3-ynyl]-2-fluoro-benzamide], the “Xenograft Outcome (approximate percent growth inhibition)” value in the test with HT29 xenograft was roughly 30%. Besides, the “Duration on Study” value is listed as 24 weeks in test [1] (Cohort 1, 10 mg/m^2 intravenous, Cholangiocarcinoma (bile duct)); 17 weeks in test [1] (Cohort 2, 20 mg/m^2 intravenous, Colorectal cancer); 24 weeks in test [1] (Cohort 2, 20 mg/m^2 intravenous, Liposarcoma (soft tissue)); 39 weeks in test [1] (Cohort 4, 53 mg/m^2 intravenous, Leiomyosarcoma (smooth muscle)); 24 weeks in test [1] (Cohort 5, 70 mg/m^2 intravenous, Carcinoid); 19 weeks in test [1] (Cohort 6, 100 mg/m^2 intravenous, Colorectal cancer). Further, the “Duration on Study” value in test [1] (Cohort 9, 280 mg/m^2 intravenous, Endocervical cancer) is on record as 36 weeks; in test [1] (Cohort 9, 280 mg/m^2 intravenous, Malignant Thymoma, patient still on study (active)), 24 (active) weeks. Besides, in test [1] (endocervical cancer patient, before withdrawing consent), the response result is reported as “minor response”. Also, the disease course entry in test [1] (leiomyosarcoma patient, stayed on study afterwards) is reported as “tumor progression at cycle 6”. Besides, the disease status result in test [1] (setting [2]) is listed as “stable diseases for an extended period”. Moreover, the “time patients stayed on study” value in test [1] (setting [2]) is “greater than 16 weeks”.
